Structures can show the parent of a compound that is named as a salt. Where two headings read alike, the source gives them in different places.
Columns and labels:
[1] = test system: mouse colon cancer CT26 cells; test: In vivo pharmacodynamic test, CT26 subcutaneous tumor model, alone or combined with CS1003; parameters: species or system BALB/C mice; conditions: for tumor inhibition rate: day 20
Method: Experimental materials: BALB/C mice (female); mouse colon cancer CT26 cells (Typical Culture Preservation Commission cell bank, Chinese Academy of Sciences) were cultured in vitro in monolayer with RPMI-1640 medium containing 10% fetal bovine serum in a 37° C., 5% CO2 incubator. Trypsin-EDTA was used for routine digestion and passage. When the cells were in exponential growth phase and the saturation was 80%-90%, the cells were collected and counted.
Compound preparation: Embodiment 19 was weighted and added into the menstruum (10% PEG400+90% (10% Cremophor aqueous solution)) to prepare samples of 2.5 mg/mL, 5 mg/mL and 10 mg/mL respectively. 72 μL CS1003 (PD-1 antibody) solution (25 mg/mL) was taken and 1.728 mL Dulbecco's phosphate buffer (DPBS) was added to prepare a 1 mg/mL solution, then 16.2 mL DPBS was added to prepare a 0.1 mg/mL clear solution.
Experimental operation: the cells were resuspended in Dulbecco's phosphate buffer at a density of 3×10^6 cells/mL. 0.1 mL DPBS (containing 3×10^5 CT26 cells) was subcutaneously inoculated on the right back of each mouse. On the day of inoculation, the mice were randomly divided into groups with 9 mice each group according to the weight of the mice, then administration was started and continued for 20 days. During the whole experiment, the animals were weighed and the animal's health was monitored every day, in case of any special situation, the person in charge of the relevant project would be informed in time and the corresponding records would be made. Tumor diameter was measured twice a week with a vernier caliper. The calculation formula of the tumor volume was: V=0.5×a×b^2, wherein a and b represent the long and short diameters of the tumor respectively.
The antitumor effect of the compounds was evaluated by GI (%) or relative tumor proliferation rate T/C (%). Relative tumor proliferation rate T/C (%)=Vt/VC×100% (Vt: average tumor volume of treatment group; Vc: average tumor volume of negative control group). Vt and VC were the data on the same day. GI (%), tumor inhibition rate. GI (%)=1−Vt/VC×100%.
Statistical analysis was conducted using SPSS software based on the relative tumor volume and tumor weight at the end of the experiment. […] P<0.05 was considered as significant difference.

[2] = PK test of in vivo efficacy: plasma and tumor tissue drug concentration on day 20 of the CT26 study; parameters: species or system BALB/C mice; conditions: mouse; for concentration at 1 h / concentration at 4 h / Kp at 4 h / Kp at 1 h: oral; for concentration at 1 h / Kp at 1 h: time point 1 h; for concentration at 1 h / concentration at 4 h: tumor tissue; for concentration at 4 h / Kp at 4 h: time point 4 h; for AUC(0-t) / Cmax / Tmax / half-life: plasma, po, day 20; for half-life: read-out: T½ (converted); for Kp at 4 h / Kp at 1 h: tumor tissue / plasma, read-out: T/P* Ratio (tumor tissue / plasma drug concentration)
Method: The experiment was conducted on the basis of experimental example 3, on the 20th day after administration, blood samples and tissues were collected from each group at different time points (0 h, 0.25 h, 0.5 h, 1 h, 2 h, 4 h, 8 h and 24 h) after administration.

[3] = BALB/C, 50 mg/kg, Group 7, 50 mpk twice a day alone
[4] = BALB/C, 100 mg/kg, Group 3, 100 mpk alone
[5] = BALB/C, 25 mg/kg, Group 4: 25 mg/kg once a day PO + CS1003 1 mg/kg
[6] = BALB/C, 50 mg/kg, Group 5: 50 mg/kg once a day PO + CS1003 1 mg/kg
[7] = BALB/C, 50 mg/kg, Group 7: 50 mg/kg twice a day PO alone
[8] = BALB/C, 50 mg/kg, Group 8: 50 mg/kg twice a day PO + CS1003 1 mg/kg
[9] = BALB/C, 100 mg/kg, Group 3: 100 mg/kg once a day PO alone
[10] = BALB/C, 100 mg/kg, Group 6: 100 mg/kg once a day PO + CS1003 1 mg/kg
[11] = BALB/c, 50 mpk, Group 5, 50 mpk once a day + CS1003
[12] = BALB/c, 100 mpk, Group 3, 100 mpk alone
[13] = BALB/c, 100 mpk, Group 6, 100 mpk + CS1003

Nc1nc(-c2ccc(F)cc2)c(-c2ccc3ncnn3c2)c2nccnc12 [Embodiment 6 hydrochloride]
tumor inhibition rate ([1]; 25 mg/kg once a day combined with 1 mg/kg CS1003, p<0.001): 63.16% | tumor volume ([1]; 25 mg/kg once a day intragastric combined with 1 mg/kg CS1003, end of experiment (day 20)): 312.06+80.17 mm^3 | tumor inhibition rate ([1]; 50 mg/kg once a day combined with 1 mg/kg CS1003, p<0.001): 70.90% | tumor volume ([1]; 50 mg/kg once a day intragastric combined with 1 mg/kg CS1003, end of experiment (day 20)): 246.48+62.57 mm^3 | tumor inhibition rate ([1]; 50 mg/kg twice a day in combination with CS1003, P<0.001): 83.22% | average tumor volume ([1]; 50 mg/kg twice a day intragastric in combination with CS1003, end of experiment (day 20)): 142.17+40.30 mm^3 | tumor inhibition rate ([1]; 100 mg/kg once a day combined with 1 mg/kg CS1003, p<0.001): 72.48% | tumor volume ([1]; 100 mg/kg once a day intragastric combined with 1 mg/kg CS1003, end of experiment (day 20)): 233.10+59.55 mm^3 | concentration at 1 h [2, 3]: 3.69 µM | concentration at 4 h [2, 3]: 0.901 µM | concentration at 1 h [2, 4]: 17.5 µM | concentration at 4 h [2, 4]: 10.6 µM | AUC(0-t) [2, 5]: 23.5 µM·h | Cmax [2, 5]: 32.2 µM | Tmax [2, 5]: 30 min | half-life [2, 5]: 65.4 min | AUC(0-t) [2, 6]: 70.6 µM·h | Cmax [2, 6]: 57.2 µM | Tmax [2, 6]: 15 min | half-life [2, 6]: 63 min | AUC(0-t) [2, 7]: 42 µM·h | Cmax [2, 7]: 30.1 µM | Tmax [2, 7]: 30 min | AUC(0-t) [2, 8]: 77.9 µM·h | Cmax [2, 8]: 47.1 µM | Tmax [2, 8]: 30 min | half-life [2, 8]: 95.4 min | AUC(0-t) [2, 9]: 145 µM·h | Cmax [2, 9]: 114 µM | Tmax [2, 9]: 15 min | half-life [2, 9]: 48.6 min | AUC(0-t) [2, 10]: 125 µM·h | Cmax [2, 10]: 132 µM | Tmax [2, 10]: 15 min | half-life [2, 10]: 39.3 min | Kp at 4 h [2, 3]: 9.8 | Kp at 4 h ([2]; BALB/c, 25 mpk, Group 4, 25 mpk + CS1003): 0.9 | Kp at 1 h [2, 11]: 0.4 | Kp at 4 h [2, 11]: 1.8 | Kp at 1 h ([2]; BALB/c, 50 mpk, Group 7, 50 mpk twice a day alone): 0.7 | Kp at 4 h ([2]; BALB/c, 50 mpk, Group 8, 50 mpk twice a day + CS1003): 36 | Kp at 1 h [2, 12]: 0.6 | Kp at 4 h [2, 12]: 0.9 | Kp at 1 h [2, 13]: 0.5 | Kp at 4 h [2, 13]: 4.2

Reference: patent publication US11312715B2, “Fused ring derivative as A2A receptor inhibitor” (CSTONE PHARMACEUTICALS (SUZHOU) CO., LTD., priority 2017, dated 2022)
